# Source: US8975259B2, “Compositions and methods for inhibiting G protein signaling” (University of Rochester, priority 2007, dated 2015)
# pIC50: −log10 of the molar value. Values joined by “and” are separate entries in the source; they are usually repeats but may differ in a detail not shown here. Equal entries are not always repeated.
# Legend:
# [1] = test system: acute morphine antinociceptive tolerance in mice; experiment: Acute morphine antinociceptive tolerance (repeated i.c.v. dosing, tail-flick); type: in vivo, mouse
# [2] = test system: human δ opioid receptor (hDOR-CHO cells); experiment: Total inositol phosphate assay in hDOR-CHO cells; type: cell-based; conditions: DPDPE, Deltorphin II, M119 10 μM; naltrindole 100 μM; result in words
# Experimental: (§1) Chinese hamster ovary (CHO) cells stably expressing either the human κ (hKOR-CHO), δ (hDOR-CHO)(L. Toll, Stanford Research Institute, Palo Alto, Calif.) or μ (hMOR-CHO)(G. Uhl, National Institute on Drug Abuse, Baltimore, Md.) opioid receptor were used in the experiments. Cells in 6-well plates were labeled by adding 4 μCi of [^3H]inositol for 24 hr in inositol-free F-10 media, without serum. After labeling, LiCl was added directly to the labeling media at a final concentration of 10 mM. Ligands or peptides were added at the same time. The final volume of each well was 1 mL. The plates were put back in to the incubator at 37° C. for 30 min after which time the medium was aspirated and the plates were washed twice with 1× PBS. Ice-cold 50 mM formic acid, 1 mL, was added to the plates which were placed in the cold room at 4° C. for 30 min. After the incubation, the contents of the plates were applied to Dowex AG1-X8 columns and allowed to flow all the way through the column. The columns were washed, twice each, with 50 and 100 mM formic acid, for a total of four washes, followed by elution of the IP-containing fraction with 3 mL of 1.2 M ammonium formate/0.1 M formic acid. The eluted fraction was mixed with Scintisafe scintillation fluid, for high salt, and counted. The data are represented as the fold increase over control in total inositol phospates. All experiments were repeated three times and performed in duplicate. Control cells for each experiment were labeled with [^3H]inositol and LiCl, in the same manner as the treatment groups.
# [3] = test system: opioid-induced antinociception in mice; experiment: 55° C. warm-water tail-flick antinociception; type: in vivo, mouse
# [4] = molecular target: T1, Gαi1-Gβ1γ2 interaction (UniProt P54311+P63212); experiment: Flow cytometry competition for FITC-Gαi1 binding to immobilized b-Gβ1γ2
# T1 construct: made in house; host or cells: b-βγ: Sf9 insect cells
# Experimental: (2003) supra; Sarvazyan, et al. (1998) J. Biol. […] Fluorescein-labeled Ga^ (Fan) was prepared in accordance with standard methods (Sarvazyan, et al. (1998) supra). Assays were used to determine peptide effects on Gα-Gβγ interactions included competition and dissociation assays (Ghosh, et al. (2003) supra). […] The bead-associated fluorescence was then recorded in a BD Biosciences […] flow cytometer. Data was corrected for background fluorescence and fit with a sigmoid dose response curve using Graph Pad Prism 4. To measure dissociation of Fan from b-Gβaγ2, 100 pM of Fa^ was incubated with 50 pM immobilized b-Gβ1γ2 at room temperature for 15-20 minutes.
# [5] = molecular target: T2, Fαi1GDPβ1γ2 heterotrimer (UniProt P54311+P63212); experiment: Dissociation of Fαi1 from preformed Fαi1β1γ2 heterotrimer (flow cytometry); type: binding; conditions: result in words
# T2 construct: made in house; host or cells: b-βγ: Sf9 insect cells
# [6] = molecular target: T3, PLCβ3-bGβ1γ2 interaction (UniProt P54311+P63212); experiment: PLCβ3 binding to biotinylated Gβ1γ2 (avidin agarose precipitation); conditions: M119 10 μM, M201 1 μM; result in words
# T3 construct: made in house; host or cells: bGβ1γ2: Sf9 insect cells
# Experimental: Purified PLCβ2 (0.25 ng) was assayed in the presence (▴) or absence (▪) of 100 nM purified Gβ1γ2. […] Assays contained 10 ng of purified p101/p110 PI3Kγ heterodimer with or without 100 nM purified Gβ1γ2. Left panel: (▴) 100 nM Gβ1γ2 or (▪) no βγ. […] M119 or M201 and 25 nM purified GRK2 were added simultaneously to 250 nM biotinylated Gβ1γ2 (bGβ1γ2) immobilized on streptavidin agarose. GRK2 was detected with antibody to GRK2. Data are representative (mean ±SEM, except D) repeated at least three times each. […] 30 nM bGβ1γ2 was incubated with either 30 nM PLCβ2 or PLCβ3 in the presence or absence of M119 or M201 for 16 h at 4° C. before precipitation with avidin agarose and detection with PLCβ2,or Gβ antibodies. […] Same as 4E with PLCβ3.
# [7] = test system: human μ opioid receptor (hMOR-CHO cells); experiment: Total inositol phosphate assay in hMOR-CHO cells; type: cell-based; conditions: 10 μM; result in words
# Experimental: as §1
# [8] = test system: ERK1 and ERK2 activation in differentiated HL60 cells; experiment: fMLP-induced ERK1 and ERK2 activation in differentiated HL60 cells; type: cell-based, human; conditions: 10 μM compound, 1 μM fMLP, result in words
# Experimental: Cells were pretreated with DMSO or 10 μM compounds for 5 min prior to stimulation with 250 nM fMLP. […] Normalized peak Ca^2+ responses were pooled from three independent experiments each (mean±SEM). Cells were pretreated with DMSO (▪) or compounds (▴) for 5 min prior to stimulation. FIG. 5C is the same as A except 10 μM M201 was tested. […] Differentiated HL60 cells were treated with 10 μM compound prior to stimulation with 250 nM fMLP. Translocation of endogenous GRK2 was determined by Western blotting with a GRK2 antibody and quantitative chemiluminescence. Data are mean±SEM from 5 experiments, * P<0.05, **P<0.01 ANOVA. […] Differentiated HL60 cells stably over-expressing GFP-PHAkt were treated with 10 μM compound prior to stimulation with 100 nM fMLP. Translocation of GFP-PHAkt to the membrane was determined by Western blotting with an anti-GFP antibody and quantitative chemiluminescence. Data are mean±SEM from 4 experiments. *** P<0.001 ANOVA. […] Differentiated HL60 cells were pretreated with 10 μM of compound prior to stimulation with 1 μM fMLP for 5 min. Levels of phosphorylated and total ERK were determined by Western blotting.
structure (smiles),measurement,setting,value
"O=C(O)C1CCCCC1c1c2ccc(=O)c(O)c-2oc2c(O)c(O)ccc12 (stereo not shown) [Compound M119, cyclohexanecarboxylic acid, 2-(4,5,6-trihydroxy-3-oxo-3H-xanthen-9-yl)-(9cl)]",ED50 of morphine co-administered with M119,[1]; 6 hr,0.22 nmol
same,ED50 of morphine co-administered with M119,[1]; time 0,0.16 nmol
same,effect on IP generation over control treated cells,[2],no significant effect
same,ED50 of Deltorphin II in the presence of M119,[3]; M119 100 nmol i.c.v.,11 nmol
same,ED50 of DAMGO co-administered with M119,"[3]; mouse, in vivo",0.01 nmol
same,ED50 of DPDPE with M119,"[3]; mouse, in vivo",5.4 nmol
same,"ED50 of U50,488 with M119","[3]; mouse, in vivo",17 nmol
same,ED50 of morphine co-administered with the compound,"[3]; mouse, in vivo",0.065 nmol and 0.069 (0.023-0.201) nmol
same,Percent Antinociception ± S.E.M.,"[3]; mouse, in vivo",100 ± 0.0% and 79.3 ± 9.1% and 64.4 ± 10.0% and 55.3 ± 12.7%
same,effect of compound alone on baseline antinociception,"[3]; mouse, in vivo",no effect
same,leftward shift in the DAMGO dose-response curve,"[3]; mouse, in vivo",7 fold
same,"shift in the U50,488 dose-response curve","[3]; mouse, in vivo",2 fold
same,shift of morphine ED50 / increase in analgesic potency of morphine,"[3]; mouse, in vivo",11 fold
same,leftward shift of systemic morphine ED50,"[3]; mouse, in vivo, 100 mg/kg",4 fold
same,pIC50,[4],6.40
same,interactions of Gα subunit with Gβγ subunits,[4]; result in words,blocked
same,promotion/acceleration of heterotrimer dissociation,[5],did not promote dissociation
same,effect on direct binding of bGβ1γ2 to PLCβ3,[6],inhibited
same,effect of compound by itself on IP production,[7],no effect by itself
same,effect on DAMGO- and morphine-dependent IP production,[7],significantly attenuated
same,effect on fMLP-induced activation of ERK1 and ERK2,[8],did not block
same,effect on fMLP-induced activation of ERK1 and ERK2,[8]; listed as NSC119910,without interfering
